In assay [1] the target is T1, interaction between glucokinase (GK) and glucokinase regulatory protein (GKRP) (Homo sapiens, UniProt Q14397).
T1 sequence (Q14397 1-625): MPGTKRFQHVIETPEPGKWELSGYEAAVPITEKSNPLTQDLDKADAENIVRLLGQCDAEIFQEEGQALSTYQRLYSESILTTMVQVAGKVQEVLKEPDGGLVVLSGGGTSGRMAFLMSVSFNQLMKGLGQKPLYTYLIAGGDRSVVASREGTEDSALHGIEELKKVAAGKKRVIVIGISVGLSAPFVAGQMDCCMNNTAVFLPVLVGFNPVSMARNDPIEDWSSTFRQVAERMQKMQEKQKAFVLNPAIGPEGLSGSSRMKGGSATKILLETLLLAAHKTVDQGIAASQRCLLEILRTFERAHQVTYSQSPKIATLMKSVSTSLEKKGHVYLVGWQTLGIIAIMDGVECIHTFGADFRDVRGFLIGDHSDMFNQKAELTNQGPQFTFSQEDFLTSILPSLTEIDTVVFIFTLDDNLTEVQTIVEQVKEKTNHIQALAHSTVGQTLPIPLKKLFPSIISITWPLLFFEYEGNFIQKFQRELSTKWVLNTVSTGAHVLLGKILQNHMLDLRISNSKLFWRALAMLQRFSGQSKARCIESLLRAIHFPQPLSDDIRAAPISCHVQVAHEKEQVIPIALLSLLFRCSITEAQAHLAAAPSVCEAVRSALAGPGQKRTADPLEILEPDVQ
Briefly: biochemical. It counts as binding. In outline:
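Measures direct GK–GKRP binding in 20 mM Tris pH 7.5 containing 1 μM sorbitol-6-phosphate, 0.05% BSA and 1 mM DTT. Compound and avi-tagged GKRP sit 20 min at room temperature before GK-fluorescein addition (6 nM in the added buffer); read after 2 h dark incubation at room temperature.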

The target in assay [2] is T2, GKRP (Glucokinase Regulatory Protein) with human His-hepatic GK (Homo sapiens, UniProt Q14397).
T2 sequence (Q14397 1-625): T1 sequence (Q14397 1-625)
The assay can be described thus: biochemical. The gist of the method:
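Product formation, 13C-glucose-6-phosphate from 13C-glucose, was measured directly by LC MS/MS after acetonitrile quench. The GK reaction ran 30 min at room temperature in Tris pH 7.5 buffer with 4 mM MgCl2 and 6% DMSO. The 5× enzyme stock was 30 nM His-tagged human hepatic glucokinase.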

Setting [3] is: avi-tagged GKRP, GK-fluorescein, AlphaScreen beads, read-out: GK-GKRP IC50 (Binding).
Where [4] appears, read: 13C-glucose-6-phosphate formation, 280 nM GKRP (10×), 30 nM GK (5×), read-out: GK-GKRP EC50 (LC MS/MS-2).

Like-named read-outs stand apart in the source and are kept apart here.

What is called IC50 is the concentration that inhibits the measured activity by half.

As for `CC(O)(c1ccc(N2CCN(S(=O)(=O)c3cccs3)C[C@@H]2CNc2ccccc2)cc1)C(F)(F)F` (mixture of isomers) [Example 203, 1,1,1-trifluoro-2-(4-((2S)-2-((phenylamino)methyl)-4-(2-thiophenylsulfonyl)-1-piperazinyl)phenyl)-2-propanol], in assay [1] (GK-GKRP IC50 (Binding)), the IC50 turned out to be 0.278 µM. For the same compound, the EC50 in assay [2] (GK-GKRP EC50 (LC MS/MS-2)) turned out to be 0.146 µM.

`CC(O)(c1ccc(N2CCN(S(=O)(=O)c3cccs3)C[C@@H]2CN(c2ccccc2)S(C)(=O)=O)cc1)C(F)(F)F` (mixture of isomers) [Example 204, N-phenyl-N-(((2R)-4-(2-thiophenylsulfonyl)-1-(4-(2,2,2-trifluoro-1-hydroxy-1-methylethyl)phenyl)-2-piperazinyl)methyl)methanesulfonamide]: the IC50 in assay [1] (setting [3]) worked out at 0.004 µM. In addition, the EC50 in assay [2] (setting [4]) came to 0.032 µM.

Take `CC(O)(c1ccc(N2CCN(S(=O)(=O)c3cccs3)C[C@@H]2CN(C2COC2)C2COC2)cc1)C(F)(F)F` (mixture of isomers) [Example 205, 2-(4-((2S)-2-((di-3-oxetanylamino)methyl)-4-(2-thiophenylsulfonyl)-1-piperazinyl)phenyl)-1,1,1-trifluoro-2-propanol]: the IC50 in assay [1] (setting [3]) was found to be 0.435 µM. Besides, the EC50 in assay [2] (setting [4]) was determined as 0.48 µM.

`CC(O)(c1ccc(N2CCN(S(=O)(=O)c3cccs3)C[C@@H]2CNC2COC2)cc1)C(F)(F)F` (mixture of isomers) [Example 206, 1,1,1-trifluoro-2-(4-((2S)-2-((3-oxetanylamino)methyl)-4-(2-thiophenylsulfonyl)-1-piperazinyl)phenyl)-2-propanol]: the IC50 in assay [1] (setting [3]) came out at 0.248 µM. The EC50 in assay [2] (setting [4]) came to 0.343 µM.

For the compound `CC(O)(c1ccc(N2CCN(S(=O)(=O)c3cccs3)C[C@@H]2CN(C2COC2)S(C)(=O)=O)cc1)C(F)(F)F` (mixture of isomers) [Example 207, N-3-oxetanyl-N-(((2R)-4-(2-thiophenylsulfonyl)-1-(4-(2,2,2-trifluoro-1-hydroxy-1-methylethyl)phenyl)-2-piperazinyl)methyl)methanesulfonamide], the 50% inhibitory concentration (IC50) in assay [1] (setting [3]) is 0.241 µM. For the same compound, in assay [2] (setting [4]), the EC50 amounted to 0.257 µM.

In the case of `CN(C[C@H]1CN(S(=O)(=O)c2cccs2)CCN1c1ccc(C(C)(O)C(F)(F)F)cc1)S(C)(=O)=O` (mixture of isomers) [Example 208, N-methyl-N-(((2S)-4-(2-thiophenylsulfonyl)-1-(4-(2,2,2-trifluoro-1-hydroxy-1-methylethyl)phenyl)-2-piperazinyl)methyl)methane sulfonamide], in assay [1] (setting [3]), the IC50 turned out to be 0.112 µM. In assay [2] (setting [4]), the EC50 was 0.234 µM.

On to `CC(C)N(C[C@H]1CN(S(=O)(=O)c2cccs2)CCN1c1ccc(C(C)(O)C(F)(F)F)cc1)S(=O)(=O)N(C)C` (mixture of isomers) [Example 209, N,N-dimethyl-N′-(1-methylethyl)-N′-(((2R)-4-(2-thiophenylsulfonyl)-1-(4-(2,2,2-trifluoro-1-hydroxy-1-methylethyl)phenyl)-2-piperazinyl)methyl)sulfamide], for which, in assay [1] (setting [3]), the IC50 was determined as 0.007 µM. In addition, in assay [2] (setting [4]), the EC50 is 0.023 µM.

For `CC(C)CS(=O)(=O)NC[C@H]1CN(S(=O)(=O)c2cccs2)CCN1c1ccc(C(C)(O)C(F)(F)F)cc1` (mixture of isomers) [Example 210, 2-methyl-N-(((2S)-4-(2-thiophenylsulfonyl)-1-(4-(2,2,2-trifluoro-1-hydroxy-1-methylethyl)phenyl)-2-piperazinyl)methyl)-1-propanesulfonamide], in assay [1] (setting [3]), the IC50 stood at 0.507 µM. Moreover, the EC50 in assay [2] (setting [4]) came to 0.249 µM.

Regarding `CC(C)CS(=O)(=O)N(C[C@H]1CN(S(=O)(=O)c2cccs2)CCN1c1ccc(C(C)(O)C(F)(F)F)cc1)c1ccccc1` (mixture of isomers) [Example 211, 2-methyl-N-phenyl-N-(((2R)-4-(2-thiophenylsulfonyl)-1-(4-(2,2,2-trifluoro-1-hydroxy-1-methylethyl)phenyl)-2-piperazinyl)methyl)-1-propanesulfonamide], in assay [1] (setting [3]), the IC50 worked out at 0.006 µM. Moreover, the EC50 in assay [2] (setting [4]) was found to be 0.02 µM.

Regarding `CC(C)CN(C[C@H]1CN(S(=O)(=O)c2cccs2)CCN1c1ccc(C(C)(O)C(F)(F)F)cc1)S(=O)(=O)CC(F)(F)F` (mixture of isomers) [Example 214, 2,2,2-trifluoro-N-(2-methylpropyl)-N-(((2S)-4-(2-thiophenylsulfonyl)-1-(4-(2,2,2-trifluoro-1-hydroxy-1-methylethyl)phenyl)-2-piperazinyl)methyl) ethanesulfonamide], in assay [1] (setting [3]), the IC50 came to 0.238 µM. In addition, the EC50 in assay [2] (setting [4]) turned out to be 0.247 µM.

`CC(C)CN(C[C@H]1CN(S(=O)(=O)c2cccs2)CCN1c1ccc(C(C)(O)C(F)(F)F)cc1)S(=O)(=O)N(C)C` (mixture of isomers) [Example 215, N,N-dimethyl-N′-(2-methylpropyl)-N′-(((2R)-4-(2-thiophenylsulfonyl)-1-(4-(2,2,2-trifluoro-1-hydroxy-1-methylethyl)phenyl)-2-piperazinyl)methyl)sulfamide]: in assay [1] (setting [3]), the IC50 is 0.07 µM. In addition, the EC50 in assay [2] (setting [4]) amounted to 0.07 µM.

Regarding `CC1(CN(C[C@H]2CN(S(=O)(=O)c3cccs3)CCN2c2ccc(C(C)(O)C(F)(F)F)cc2)S(C)(=O)=O)COC1` (mixture of isomers) [Example 216, N-((3-methyl-3-oxetanyl)methyl)-N-(((2S)-4-(2-thiophenylsulfonyl)-1-(4-(2,2,2-trifluoro-1-hydroxy-1-methylethyl)phenyl)-2-piperazinyl)methyl)methanesulfonamide], in assay [1] (setting [3]), the IC50 turned out to be 0.172 µM. Besides, the EC50 in assay [2] (setting [4]) turned out to be 0.194 µM.

On to `CN(C[C@H]1CN(S(=O)(=O)c2cccs2)CCN1c1ccc(C(C)(O)C(F)(F)F)cc1)S(=O)(=O)c1cccnc1` (mixture of isomers) [Example 217, N-methyl-N-(((2S)-4-(2-thiophenylsulfonyl)-1-(4-(2,2,2-trifluoro-1-hydroxy-1-methylethyl)phenyl)-2-piperazinyl)methyl)-3-pyridinesulfonamide], for which, in assay [1] (setting [3]), the IC50 came out at 0.407 µM. Moreover, the EC50 in assay [2] (setting [4]) came out at 0.752 µM.

Regarding `CC(O)(c1ccc(N2CCN(S(=O)(=O)c3cccs3)C[C@@H]2CN(CC2CCC2)S(C)(=O)=O)cc1)C(F)(F)F` (mixture of isomers) [Example 218, N-(cyclobutylmethyl)-N-(((2S)-4-(2-thiophenylsulfonyl)-1-(4-(2,2,2-trifluoro-1-hydroxy-1-methylethyl)phenyl)-2-piperazinyl)methyl)methanesulfonamide], in assay [1] (setting [3]), the IC50 came to 0.024 µM. Moreover, the EC50 in assay [2] (setting [4]) is 0.017 µM.

Take `CC(O)(c1ccc(N2CCN(S(=O)(=O)c3cccs3)C[C@@H]2CSc2ccccc2F)cc1)C(F)(F)F` (mixture of isomers) [Example 219, 1,1,1-trifluoro-2-(4-((2R)-2-(((2-fluorophenyl)sulfanyl)methyl)-4-(2-thiophenylsulfonyl)-1-piperazinyl)phenyl)-2-propanol]: the IC50 in assay [1] (setting [3]) was determined as 0.014 µM. In assay [2] (setting [4]), the EC50 was 0.025 µM.

Regarding `CC(O)(c1ccc(N2CCN(S(=O)(=O)c3cccs3)C[C@@H]2CN(Cc2ccccc2)S(C)(=O)=O)cc1)C(F)(F)F` (mixture of isomers) [Example 220, N-benzyl-N-(((2S)-4-(2-thiophenylsulfonyl)-1-(4-(2,2,2-trifluoro-1-hydroxy-1-methylethyl)phenyl)-2-piperazinyl)methyl)methanesulfonamide], the IC50 in assay [1] (setting [3]) turned out to be 0.003 µM. Besides, the EC50 in assay [2] (setting [4]) worked out at 0.015 µM.

For the origin of these results see patent US8431563B2 (priority 2010, dated 2013).
